Assay results: patent publication US20180370922A1, “ANTI-INFLAMMATORY 6-PHENOXYPYRIMIDINE DERIVATIVES, PROCESS FOR THEIR PREPARATION AND PHARMACEUTICAL COMPOSITION CONTAINING THEM” (priority 2017, published 2018)

Key:
[1] = test system: LPS-induced NO production in RAW 264.7 macrophages; test: Measurement of nitrite (Griess test) as a measure of NO production; type: cell-based, murine; conditions: FIG. 2
Experimental: The concentration of nitrite accumulated in the culture medium was measured by the Griess test as a measure of nitric oxide (NO) production. L-NIL was used as the positive control.

TNF-α = test: Cytokine production inhibiting activity, TNF-α; type: cell-based; conditions: at a concentration of 12 μM, FIG. 6
Experimental: (§1) The inhibitory activity for the proinflammatory cytokines TNF-α, IL-1β and IL-6 was tested for the compound of the present invention.

IL-6 = test: Cytokine production inhibiting activity, IL-6; type: cell-based; conditions: at a concentration of 12 μM, FIG. 6
Experimental: as §1

iNOS mRNA = iNOS mRNA expression level; type: cell-based; conditions: FIG. 5A
Experimental: Western blotting was conducted to identify the mechanism of the NO and PGE2 production inhibiting activity of the compound of the present invention. The inhibition of iNOS and COX-2 protein production and mRNA upregulation was tested.

[2] = test system: LPS-induced PEG2 production; test: Measurement of PEG2 production; type: cell-based; conditions: FIG. 3

## COc1ccc(Oc2nc(Nc3ccc(N4CCOCC4)cc3)ncc2/N=C/c2cc(OC)cc(OC)c2)cc1 [Example 21, (E)-5-((3,5-dimethoxybenzylidene)amino)-4-(4-methoxyphenoxy)-N-(4-morpholinophenyl)pyrimidin-2-amine]
RAW 264.7 macrophages
  cell viability (toxicity): little toxicity
[1]; RAW 264.7 macrophages, LPS 24 hours, Griess test
  inhibition of LPS-induced NO production: inhibit LPS-induced NO production in a dose-dependent manner
[1]; relative to L-NIL
  NO inhibitory activity as compared to the positive control L-NIL: 2 times
TNF-α
  inhibition of TNF-α production: inhibit the production of TNF-α
IL-6
  inhibition of IL-6 production: inhibit the production of TNF-α and IL-6
iNOS mRNA
  inhibition of LPS-induced upregulation of iNOS mRNA: inhibit LPS-induced upregulation of iNOS mRNA
[2]
  inhibition of LPS-induced PEG2 production: inhibit LPS-induced PEG2 production in a dose-dependent manner
